# From patent US4027039A (priority 1975, dated 1977)
# Read-outs that look alike come from different tables or passages of the source.
# What was measured:
# [1] = system: Influenza, Ann Arbor virus; assay: Influenza Ann Arbor in mice, oral; schedule by table; late read day 5 (Tables 15, 25, 29, 30), 6 (18, 20, 22, 23, 26, 27, 28, 54), 7 (14, 19, 21, 24, 53, 56), 8 (16, 17, 51), 9 (11, 55); assay type: in vivo, mouse
# [2] = system: Influenza PR 8 virus; assay: Influenza PR 8 in mice, oral; schedule by table; late read day 6 (Table 37), 7 (33, 36), 8 (32, 35, 47), 10 (38); control fraction 18/20 (Table 32), 19/20 (Table 35), else 100%; assay type: in vivo, mouse; settings: of 41 tests
# [3] = system: Influenza B Massachusetts virus; assay: Influenza B Mass. in mice, oral; late read day 5 (Table 39), 7 (Table 40), 11 (Tables 61, 65); control fraction 16/20 (Table 61), else 100%; assay type: in vivo, mouse
# Protocol: A portion of a commercially available sample of amantadine was recrystallized from isopropanol. The activity of the material against Influenza B Mass. was tested for the sample as obtained, the recrystallized portion, and the mother liquor obtained from recrystallizing the portion.
# [4] = system: Influenza B Massachusetts virus; settings: larger doses and different dose schedules, literature; cited from earlier work
# [5] = system: viral infections; assay: Antiviral screening in animals, general statements; settings: mouse, in vivo
# [6] = system: cells; assay: Plaque reduction and cytotoxicity in cells; assay type: cell-based
# Text: It is well known in virology that cells injured due to toxic substances will not support the growth of viruses.
# [7] = system: Herpes virus
# [8] = system: polio and Vaccinia virus; settings: cytopathic effect; cited from earlier work
# [9] = system: infectious canine hepatitis; settings: 50 mg/kg; cited from earlier work
compound,measurement,setting,value
"NC12CC3CC(CC(C3)C1)C2 [Commercial amantadine, amantadine, reference compound]",occasions with survivors,[1]; of 18 tests,5
same,instances of increased geometric mean survival time,[2],11
same,statistically significant number of survivors in one single instance,[2],3
same,No. animals surviving after 11 days,[3]; total dose 60 ng,3
same,No. animals surviving after 11 days,[3]; total dose 600 ng,3
same,Survivors,[3]; total dose 600 ng,3
same,No. animals surviving after 11 days,[3]; total dose 6 μg,7
same,Survivors,[3]; total dose 6 μg,5
same,No. animals surviving after 11 days,[3]; total dose 60 μg,3
same,Survivors,[3]; total dose 60 μg,2
same,No. animals surviving after 11 days,[3]; total dose 600 μg,5
same,Survivors,[3]; total dose 600 μg,5
same,No. animals surviving after 11 days,[3]; total dose 6 mg,4
same,Survivors,[3]; total dose 6 mg,2
same,effect against Influenza B Massachusetts,[4],ineffective
same,activity in words,[5],inactive against all of the other viruses in the test system
"NN.O=S(=O)(O)O [Hydrazine Sulfate, hydrazine sulfate]",toxic effects on the cells,[6]; 10 to 100 mg/ml,toxic effects on the cells were clearly evident
same,"antiviral activity, plaque reduction",[6]; below the level of toxicity,no antiviral activity was demonstrated
same,No. animals surviving after 6-9 days,[7]; total dose 5 μg,3
same,No. animals surviving after 6-9 days,[7]; total dose .0005 μg,3
same,No. animals surviving when 100% (or given fraction) of controls are dead,[7]; total dose .0005 μg,3
same,Survivors,[7]; total dose .0005 μg,3
same,No. animals surviving after 6-9 days,[7]; total dose .005 μg,4
same,No. animals surviving when 100% (or given fraction) of controls are dead,[7]; total dose .005 μg,4
same,Survivors,[7]; total dose .005 μg,4
same,No. animals surviving after 6-9 days,[7]; total dose .05 μg,1
same,No. animals surviving when 100% (or given fraction) of controls are dead,[7]; total dose .05 μg,1
same,Survivors,[7]; total dose .05 μg,0
same,No. animals surviving after 6-9 days,[7]; total dose .5 μg,3
same,Survivors,[7]; total dose .5 μg,1
same,concentrations with antiviral activity,[8],8 to 66 µg/mL
"O=C(CCNNC(=O)c1ccncc1)NCc1ccccc1 [Nialamide, nialamide, reference compound]",Survivors,[1]; total dose 400 pg,1
same,Survivors,[1]; total dose 4 ng,1
same,Survivors,[1]; total dose 40 ng,0
same,Survivors,[1]; total dose 400 ng,0
same,Survivors,[1]; total dose 4 μg,0
same,Survivors,[1]; total dose 400 μg,2
same,Survivors,[1]; total dose 4 mg,1
same,treated animals survived,[9],15 of 16
